In patent US9585892B2, “Solid forms comprising N-(5-tert-butyl-isoxazol-3-yl)-N′-{4-[7-(2-morpholin-4-yl-ethoxy)imidazo[2,1-b][1,3]benzothiazol-2-yl]phenyl}urea, compositions thereof, and uses therewith” (AMBIT BIOSCIENCES CORPORATION, priority 2007, dated 2017):
Counter-ions that a name gives are not always drawn. Like-named read-outs stand apart in the source and are kept apart here.

Experiments:
Assay type in all cases: physicochemical
[1] = Mechanical stress studies (compression, grinding, milling; XRPD after stress)
Procedure: Grinding. […] […] The solids were isolated and analyzed.
(§1) X-ray powder diffraction analyses were performed on an Inel XRG-3000 diffractometer, equipped with a curved position-sensitive detector with a […] of 120°. Real time data was collected using Cu Kα radiation starting at approximately 4 ° 2θ at a resolution of 0.03 ° 2θ. The tube voltage and amperage were set to 40 kV and 30 mA, respectively. […] Samples were prepared for analysis by packing them into thin-walled glass capillaries. Each capillary was mounted onto a goniometer head that is motorized to permit spinning of the capillary during data acquisition. Instrument calibration was performed daily using a silicon reference standard.

[2] = Stress experiments (temperature or relative humidity, XRPD after stress); conditions: 75% RH, ambient temperature, 2 and 4 days
Procedure: Stress Experiments. Solids were stressed under different temperature or relative humidity (RH) environments for a measured time period. Specific RH values were achieved by placing the sample inside sealed chambers containing saturated salt solutions. The salt solutions were selected and prepared following an ASTM standard procedure. Samples were analyzed by XRPD immediately after removal from the stress environment.
as §1

[3] = Dynamic vapor sorption/desorption (moisture balance); conditions: for post-moisture balance XRPD (resulting material): after sorption/desorption cycle 5-95-5% RH; for weight loss on desorption: from 95 to 5% RH
Procedure: Data were collected on a VTI SGA-100 moisture balance system. For sorption isotherms, a sorption range of about 5 to about 95% relative humidity (RH) and a desorption range of about 95 to about 5% RH in 10% RH increments were used for analysis. The samples were not dried prior to analysis. Equilibrium criteria used for analysis were less than 0.0100% weight change in 5 minutes with a maximum equilibration time of 3 hours if the weight criterion was not met. Data were not corrected for the initial moisture content of the samples.

[4] = Solubility measurements (solvent aliquot addition, visual inspection); conditions: for solubility: water, thermodynamic from solid, WATER, read-out: APPROXIMATE SOLUBILITY
Procedure: A weighed sample was treated with aliquots of the test solvent at room temperature or elevated temperature. Complete dissolution of the test material was determined by visual inspection. Solubility was estimated based on the total solvent used to provide complete dissolution. The actual solubility may be greater than the value calculated because of the use of solvent aliquots that were too large or due to a slow rate of dissolution. […] If complete dissolution was achieved as a result of only one aliquot addition, the solubility is expressed as “greater than.”

CC(C)(C)c1cc(NC(=O)Nc2ccc(-c3cn4c(n3)sc3cc(OCCN5CCOCC5)ccc34)cc2)no1 [Form B of the HCl salt of Compound B1, N-(5-tert-butyl-isoxazol-3-yl)-N′-{4-[7-(2-morpholin-4-yl-ethoxy)imidazo[2,1-b][1,3]benzothiazol-2-yl]phenyl}urea]
XRPD RESULT after mechanical stress ([1]; GRIND WITH MORTAR AND PESTLE, WATER, 1 MIN): B + SMALL PEAK
XRPD RESULT after mechanical stress ([1]; MILLING, 2,2,2-TRIFLUOROETHANOL, 10 MIN): B + LARGE PEAK
XRPD Result after stress [2]: Form B
weight change [2]: no substantial weight change
weight change ([2]; listed as B): 2 and 4 days: no weight
post-moisture balance XRPD (resulting material) [3]: Form B
post-moisture balance XRPD (resulting material) ([3]; listed as B): FORM B
weight loss upon initial equilibration ([3]; equilibrium at 5% RH): about 0.6%
water corresponding to the mass gain on sorption ([3]; from 5% to 95% RH): about 1.2 molar equivalents of water
weight gain on sorption ([3]; from 5 to 95% RH): about 3.6%
water corresponding to the weight gain on sorption ([3]; from 5 to 95% RH, listed as B): ~1.2 MOLES OF WATER FROM ~5 TO ~95%
weight gain on sorption ([3]; from 5 to 95% RH, listed as B): ~3.6% WEIGHT GAIN, CORRESPONDING TO
weight loss on desorption [3]: about 3.6%
weight loss on desorption ([3]; listed as B): RH, ~3.2% WEIGHT LOSS FROM ~95 TO ~5%
APPROXIMATE SOLUBILITY ([4]; 2,2,2-TRIFLUOROETHANOL, 67 ° C.): 53 mg/mL
APPROXIMATE SOLUBILITY ([4]; 2,2,2-TRIFLUOROETHANOL, AMBIENT): 52 mg/mL
APPROXIMATE SOLUBILITY ([4]; 2-BUTANONE (MEK), 62 ° C.): <1 mg/mL
APPROXIMATE SOLUBILITY ([4]; 2-BUTANONE (MEK), AMBIENT): <1 mg/mL
APPROXIMATE SOLUBILITY ([4]; ACETONE, 54 ° C.): <1 mg/mL
APPROXIMATE SOLUBILITY ([4]; ACETONE, AMBIENT): <1 mg/mL
APPROXIMATE SOLUBILITY ([4]; ACETONE:WATER 50:50, AMBIENT): 13 mg/mL
APPROXIMATE SOLUBILITY ([4]; ACETONITRILE, 60 ° C.): <1 mg/mL
APPROXIMATE SOLUBILITY ([4]; ACETONITRILE, AMBIENT): <1 mg/mL
APPROXIMATE SOLUBILITY ([4]; ACETONITRILE:WATER 50:50, AMBIENT): 51 mg/mL
APPROXIMATE SOLUBILITY ([4]; DICHLOROMETHANE, AMBIENT): <1 mg/mL
APPROXIMATE SOLUBILITY ([4]; DIOXANE:WATER 50:50, 62 ° C.): 23 mg/mL
APPROXIMATE SOLUBILITY ([4]; ETHANOL, 60 ° C.): <2 mg/mL
APPROXIMATE SOLUBILITY ([4]; ETHANOL, AMBIENT): <1 mg/mL
APPROXIMATE SOLUBILITY ([4]; ETHANOL:WATER 50:50, AMBIENT): 13 mg/mL
APPROXIMATE SOLUBILITY ([4]; ETHYL ACETATE, AMBIENT): <1 mg/mL
APPROXIMATE SOLUBILITY ([4]; ISOPROPANOL, 63 ° C.): <1 mg/mL
APPROXIMATE SOLUBILITY ([4]; ISOPROPANOL, AMBIENT): <1 mg/mL
APPROXIMATE SOLUBILITY ([4]; ISOPROPANOL:WATER 20:80, 62 ° C.): 54 mg/mL
APPROXIMATE SOLUBILITY ([4]; ISOPROPANOL:WATER 20:80, AMBIENT): 5 mg/mL
APPROXIMATE SOLUBILITY ([4]; METHANOL, 62 ° C.): 2 mg/mL
APPROXIMATE SOLUBILITY ([4]; METHANOL, AMBIENT): 1 mg/mL
APPROXIMATE SOLUBILITY ([4]; NITROMETHANE, 64 ° C.): <1 mg/mL
APPROXIMATE SOLUBILITY ([4]; NITROMETHANE, AMBIENT): <1 mg/mL
APPROXIMATE SOLUBILITY ([4]; P-DIOXANE, 63 ° C.): <1 mg/mL
APPROXIMATE SOLUBILITY ([4]; P-DIOXANE, AMBIENT): <1 mg/mL
APPROXIMATE SOLUBILITY ([4]; P-DIOXANE:WATER 50:50, AMBIENT): 6 mg/mL
APPROXIMATE SOLUBILITY ([4]; TETRAHYDROFURAN, 64 ° C.): <1 mg/mL
APPROXIMATE SOLUBILITY ([4]; TETRAHYDROFURAN, AMBIENT): <1 mg/mL
APPROXIMATE SOLUBILITY ([4]; TETRAHYDROFURAN:WATER 50:50, AMBIENT): 24 mg/mL
APPROXIMATE SOLUBILITY ([4]; TRIFLUOROTOLUENE, AMBIENT): <1 mg/mL
solubility ([4]; 68 °C, 68 ° C.): < 3000 µg/mL
solubility ([4]; AMBIENT): ≥ 1000 µg/mL
